Measured values from the CheMixHub viscosity set.
“And” between values parts separate entries of the source, which are not always exact repeats. Equal values may be shown once.

Assay: xn = mol fraction of the nth substance listed

O=[N+]([O-])[O-].[Li+] + O
100 kPa
Details	viscosity [mPa·s]
298.11 K, x1 = 0.0088	0.9305
298.18 K, x1 = 0.00475	0.9105
298.35 K, x1 = 0.01898	0.9846
298.45 K, x1 = 0.02699	1.04
306.75 K, x1 = 0.02699	0.8753
307.65 K, x1 = 0.01898	0.8088
307.85 K, x1 = 0.00475	0.746
308.95 K, x1 = 0.0088	0.7411

OC(O)C(Cl)(Cl)Cl + O
293.15 K, 101 kPa
Details	viscosity [mPa·s]
x1 = 0.026	1.276
x1 = 0.0441	1.631
x1 = 0.06	1.841

OC[C@@H](O)[C@@H](O)CO + O
viscosity [mPa·s], 101.3 kPa
Details	x1 = 0.003586	x1 = 0.007154	x1 = 0.01069	x1 = 0.01421	x1 = 0.0177	x1 = 0.02631	x1 = 0.03478	x1 = 0.0431	x1 = 0.05128
293.15 K	–	–	–	1.25	–	1.53	1.78	2.04	2.32
303.15 K	0.84	0.89	0.95	0.99	1.07	1.18	1.36	1.54	1.73
313.15 K	–	0.71	0.76	0.79	0.85	0.94	1.05	1.18	1.33
323.15 K	0.57	0.6	0.64	0.66	0.71	0.77	0.87	0.95	1.06

OC[C@@H](O)[C@@H](O[C@H]1O[C@H](CO)[C@@H](O)[C@H](O)[C@H]1O)[C@H](O)[C@@H](O)CO + O
Details	viscosity
293.15 K, 100 kPa, x1 = 0.06986	60.3 mPa·s
293.15 K, 101.3 kPa, x1 = 0.004	1.19 mPa·s
293.15 K, 101.3 kPa, x1 = 0.007	1.45 mPa·s
293.15 K, 101.3 kPa, x1 = 0.01	1.77 mPa·s
293.15 K, 101.3 kPa, x1 = 0.018	2.6 mPa·s
298.15 K, 100 kPa, x1 = 0.07553	62 mPa·s
303.15 K, 100 kPa, x1 = 0.08206	64 mPa·s
303.15 K, 101 kPa, x1 = 0.003592	0.9493 mPa·s
303.15 K, 101.3 kPa, x1 = 0.004	0.92 mPa·s
303.15 K, 101.3 kPa, x1 = 0.007	1.11 mPa·s
303.15 K, 101.3 kPa, x1 = 0.01	1.34 mPa·s
303.15 K, 101.3 kPa, x1 = 0.018	1.93 mPa·s
308.15 K, 100 kPa, x1 = 0.08946	67 mPa·s
313.15 K, 100 kPa, x1 = 0.09729	68 mPa·s
313.15 K, 101.3 kPa, x1 = 0.004	0.75 mPa·s
313.15 K, 101.3 kPa, x1 = 0.007	0.89 mPa·s
313.15 K, 101.3 kPa, x1 = 0.01	1.05 mPa·s and 1.27 mPa·s
313.15 K, 101.3 kPa, x1 = 0.018	1.49 mPa·s
318.15 K, 100 kPa, x1 = 0.1055	76 mPa·s
323.15 K, 100 kPa, x1 = 0.1147	79 mPa·s
323.15 K, 101 kPa, x1 = 0.003592	0.6401 mPa·s
323.15 K, 101 kPa, x1 = 0.007153	0.7457 mPa·s
323.15 K, 101.3 kPa, x1 = 0.004	0.62 mPa·s
323.15 K, 101.3 kPa, x1 = 0.007	0.73 mPa·s
323.15 K, 101.3 kPa, x1 = 0.01	0.86 mPa·s and 1.05 mPa·s
323.15 K, 101.3 kPa, x1 = 0.018	1.19 mPa·s

[F-].[Na+] + O
viscosity [mPa·s], 101 kPa
Details	x1 = 0.0009	x1 = 0.0018	x1 = 0.002	x1 = 0.0027	x1 = 0.0036	x1 = 0.005	x1 = 0.009
303.15 K	0.809	0.82	0.819	0.826	0.835	0.853	0.896
308.15 K	0.734	0.746	0.747	0.755	0.761	0.775	0.81
313.15 K	0.667	0.682	–	0.688	0.694	0.707	0.738
318.15 K	0.61	0.621	0.623	0.629	0.635	0.648	0.675
